Source: ChEMBL document CHEMBL1201862, “PubChem BioAssay data set” (2004)
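A five-concentration, 48-hour dose response in 96-well plates underlies each endpoint, interpolated linearly between surrounding concentrations. GI50 marks 50% less growth.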 Activity calls are given as the source filed them. No stated cut-off is given here; in the data, active = GI50 up to about 1.1 µM and inactive = higher.

Columns and labels:
Assay in all cases: inhibition of tumour cell growth, NCI panel, 48 h
[1] = test system: KM12
[2] = test system: SK-OV-3
[3] = test system: SK-MEL-5
[4] = test system: HCT-15
[5] = test system: HCT-116
[6] = test system: SF-268
[7] = test system: SF-539
[8] = test system: HOP-92
[9] = test system: RXF 393
[10] = test system: Malme-3M
[11] = test system: NCI-H23
[12] = test system: MDA-N
[13] = test system: NCI-H522
[14] = test system: TK-10
[15] = test system: PC-3
[16] = test system: CCRF-CEM
[17] = test system: IGROV-1
[18] = test system: T47D
[19] = test system: MDA-MB-435
[20] = test system: SNB-75

Compound: N#Cc1ccc(Oc2nc3ccc(C(F)(F)F)cc3nc2-c2ccccc2)cc1
- GI50 [1]: 20.5 µM (inactive)
- GI50 [2]: 12.5 µM (inactive)
- GI50 [3]: 19.7 µM (inactive)
- GI50 [4]: 14.9 µM
- GI50 [5]: 15.3 µM (inactive)
- GI50 [6]: 24.9 µM (inactive)
- GI50 [7]: 29.8 µM (inactive)
- GI50 [8]: 12.6 µM (inactive)
- GI50 [9]: 26.4 µM (inactive)
- GI50 [10]: 17.8 µM (inactive)
- GI50 [11]: 16.5 µM (inactive)
- GI50 [12]: 23 µM (inactive)
- GI50 [13]: 15.6 µM (inactive)
- GI50 [14]: 19.5 µM (inactive)
- GI50 [15]: 14 µM (inactive)
- GI50 [16]: 20.4 µM (inactive)
- GI50 [17]: 18.8 µM (inactive)
- GI50 [18]: 16.7 µM (inactive)
- GI50 [19]: 17.7 µM (inactive)
- GI50 [20]: 14.1 µM (inactive)

Compound: COC1CC(C)(N)C(O)C(C)O1 (stereo not given)
- GI50 [1]: > 100 µM (inactive)
- GI50 [2]: > 100 µM (inactive)
- GI50 [3]: > 100 µM (inactive)
- GI50 [4]: > 100 µM
- GI50 [5]: > 100 µM (inactive)
- GI50 [6]: > 100 µM (inactive)
- GI50 [7]: > 100 µM (inactive)
- GI50 [8]: > 100 µM (inactive)
- GI50 [9]: > 100 µM (inactive)
- GI50 [10]: > 100 µM (inactive)
- GI50 [11]: > 100 µM (inactive)
- GI50 [12]: > 100 µM (inactive)
- GI50 [13]: > 100 µM (inactive)
- GI50 [14]: > 100 µM (inactive)
- GI50 [15]: > 100 µM (inactive)
- GI50 [16]: > 100 µM (inactive)
- GI50 [17]: > 100 µM (inactive)
- GI50 [18]: > 100 µM (inactive)
- GI50 [19]: > 100 µM (inactive)
- GI50 [20]: > 100 µM (inactive)

Compound: CC1(c2nc3cc(Cl)c(Cl)cc3[nH]2)CCC(CO)C(C)(C)O1 (stereo not given)
- GI50 [1]: 15.1 µM (inactive)
- GI50 [2]: 94.2 µM (inactive)
- GI50 [3]: 13.2 µM (inactive)
- GI50 [4]: 35.6 µM
- GI50 [5]: 31.4 µM (inactive)
- GI50 [6]: 34.8 µM (inactive)
- GI50 [7]: 25.4 µM (inactive)
- GI50 [8]: 44 µM (inactive)
- GI50 [9]: 47.4 µM (inactive)
- GI50 [10]: 24.5 µM (inactive)
- GI50 [11]: 25.6 µM (inactive)
- GI50 [12]: 29 µM (inactive)
- GI50 [13]: 6.49 µM (inactive)
- GI50 [14]: 27.6 µM (inactive)
- GI50 [15]: 29 µM (inactive)
- GI50 [16]: 27.9 µM (inactive)
- GI50 [17]: 20.9 µM (inactive)
- GI50 [18]: 32.3 µM (inactive)
- GI50 [19]: 41.4 µM (inactive)
- GI50 [20]: 14.8 µM (inactive)

Compound: CNC(=O)/C=C/C1=CN2C(=O)c3ccc(C)c(O)c3NC(OC)C2C1 (stereo not given)
- GI50 [1]: < 0.0139 µM (active)
- GI50 [2]: < 0.0206 µM (active)
- GI50 [3]: 0.0116 µM (active)
- GI50 [4]: < 0.0131 µM
- GI50 [5]: < 0.0148 µM (active)
- GI50 [6]: < 0.0154 µM (active)
- GI50 [7]: < 0.0135 µM (active)
- GI50 [8]: 0.0166 µM (active)
- GI50 [9]: < 0.01 µM (active)
- GI50 [10]: 0.0132 µM (active)
- GI50 [11]: < 0.0134 µM (active)
- GI50 [12]: < 0.0127 µM (active)
- GI50 [13]: < 0.0128 µM (active)
- GI50 [14]: 0.0142 µM (active)
- GI50 [15]: < 0.016 µM (active)
- GI50 [16]: < 0.0247 µM (active)
- GI50 [17]: 0.016 µM (active)
- GI50 [18]: < 0.0181 µM (active)
- GI50 [19]: < 0.0133 µM (active)
- GI50 [20]: 0.0151 µM (active)

Compound: Oc1c(O)c(Cc2ccccc2)c(Cc2ccccc2)c(Cc2ccccc2)c1Cc1ccccc1
- GI50 [1]: > 10 µM (inactive)
- GI50 [2]: > 10 µM (inactive)
- GI50 [3]: > 10 µM (inactive)
- GI50 [4]: > 10 µM
- GI50 [5]: > 10 µM (inactive)
- GI50 [6]: > 10 µM (inactive)
- GI50 [7]: > 10 µM (inactive)
- GI50 [8]: > 10 µM (inactive)
- GI50 [9]: > 10 µM (inactive)
- GI50 [10]: > 10 µM (inactive)
- GI50 [11]: > 10 µM (inactive)
- GI50 [12]: > 10 µM (inactive)
- GI50 [13]: > 10 µM (inactive)
- GI50 [14]: > 10 µM (inactive)
- GI50 [15]: > 10 µM (inactive)
- GI50 [16]: > 10 µM (inactive)
- GI50 [17]: > 10 µM (inactive)
- GI50 [18]: > 10 µM (inactive)
- GI50 [19]: > 10 µM (inactive)
- GI50 [20]: > 10 µM (inactive)

Compound: NS(=O)(=O)c1cc(Br)c(/N=N\c2ccc(O)c3ncccc23)c(Br)c1
- GI50 [1]: 37.8 µM (inactive)
- GI50 [2]: 47.8 µM (inactive)
- GI50 [3]: 30.7 µM (inactive)
- GI50 [4]: 4.27 µM
- GI50 [5]: 26.7 µM (inactive)
- GI50 [6]: 15.9 µM (inactive)
- GI50 [7]: 25.9 µM (inactive)
- GI50 [8]: 41.8 µM (inactive)
- GI50 [9]: 46.5 µM (inactive)
- GI50 [10]: 13.5 µM (inactive)
- GI50 [11]: 17.9 µM (inactive)
- GI50 [12]: 14.6 µM (inactive)
- GI50 [13]: 16.5 µM (inactive)
- GI50 [14]: 22.3 µM (inactive)
- GI50 [15]: 29.8 µM (inactive)
- GI50 [16]: 3.78 µM (inactive)
- GI50 [17]: 11 µM (inactive)
- GI50 [18]: 39 µM (inactive)
- GI50 [19]: 29.2 µM (inactive)
- GI50 [20]: 21.7 µM (inactive)

Compound: CN(C)CCCNc1c2ccccc2nc2cccc([N+](=O)[O-])c12
- GI50 [1]: 0.00117 µM (active)
- GI50 [2]: 0.00367 µM (active)
- GI50 [3]: < 0.001 µM (active)
- GI50 [4]: < 0.001 µM
- GI50 [5]: 0.00152 µM (active)
- GI50 [6]: 0.00123 µM (active)
- GI50 [7]: 0.00197 µM (active)
- GI50 [8]: < 0.001 µM (active)
- GI50 [9]: 0.00118 µM (active)
- GI50 [10]: < 0.001 µM (active)
- GI50 [11]: < 0.001 µM (active)
- GI50 [12]: 0.00102 µM (active)
- GI50 [13]: < 0.001 µM (active)
- GI50 [14]: 0.00215 µM (active)
- GI50 [15]: < 0.001 µM (active)
- GI50 [16]: 0.00824 µM (active)
- GI50 [17]: < 0.001 µM (active)
- GI50 [18]: 0.0158 µM (active)
- GI50 [19]: < 0.001 µM (active)
- GI50 [20]: 0.00204 µM (active)

Compound: COc1cc2c(cc1C1COc3cc4occc4cc3C1=O)OCO2 (stereo not given)
- GI50 [1]: > 100 µM (inactive)
- GI50 [2]: 34.4 µM (inactive)
- GI50 [3]: > 100 µM (inactive)
- GI50 [4]: 35.9 µM
- GI50 [5]: > 100 µM (inactive)
- GI50 [6]: 55.1 µM (inactive)
- GI50 [7]: 35.6 µM (inactive)
- GI50 [8]: 91 µM (inactive)
- GI50 [9]: 36.3 µM (inactive)
- GI50 [10]: 89.1 µM (inactive)
- GI50 [11]: > 100 µM (inactive)
- GI50 [12]: > 100 µM (inactive)
- GI50 [13]: > 100 µM (inactive)
- GI50 [14]: 29.4 µM (inactive)
- GI50 [15]: > 100 µM (inactive)
- GI50 [16]: > 100 µM (inactive)
- GI50 [17]: 63 µM (inactive)
- GI50 [18]: > 100 µM (inactive)
- GI50 [19]: > 100 µM (inactive)
- GI50 [20]: > 100 µM (inactive)

Compound: COc1ccc(Br)c2c1CC(C(=O)O)CC2 (stereo not given)
- GI50 [1]: > 100 µM (inactive)
- GI50 [2]: > 100 µM (inactive)
- GI50 [3]: > 100 µM (inactive)
- GI50 [4]: > 100 µM
- GI50 [5]: > 100 µM (inactive)
- GI50 [6]: > 100 µM (inactive)
- GI50 [7]: > 100 µM (inactive)
- GI50 [8]: > 78.5 µM (inactive)
- GI50 [9]: > 100 µM (inactive)
- GI50 [10]: > 100 µM (inactive)
- GI50 [11]: > 100 µM (inactive)
- GI50 [12]: > 100 µM (inactive)
- GI50 [13]: > 100 µM (inactive)
- GI50 [14]: > 100 µM (inactive)
- GI50 [15]: > 100 µM (inactive)
- GI50 [16]: > 100 µM (inactive)
- GI50 [17]: > 100 µM (inactive)
- GI50 [18]: > 100 µM (inactive)
- GI50 [19]: > 100 µM (inactive)
- GI50 [20]: > 100 µM (inactive)

Compound: ON[C@H]1C[C@@H](n2cnc3c(NC4CC4)ncnc32)[C@H](O)[C@@H]1O
- GI50 [1]: > 100 µM (inactive)
- GI50 [2]: > 100 µM (inactive)
- GI50 [3]: > 100 µM (inactive)
- GI50 [4]: > 100 µM
- GI50 [5]: > 100 µM (inactive)
- GI50 [6]: > 100 µM (inactive)
- GI50 [7]: > 100 µM (inactive)
- GI50 [8]: > 100 µM (inactive)
- GI50 [9]: > 100 µM (inactive)
- GI50 [10]: > 100 µM (inactive)
- GI50 [11]: > 100 µM (inactive)
- GI50 [12]: > 100 µM (inactive)
- GI50 [13]: > 100 µM (inactive)
- GI50 [14]: > 100 µM (inactive)
- GI50 [15]: > 100 µM (inactive)
- GI50 [16]: > 100 µM (inactive)
- GI50 [17]: > 100 µM (inactive)
- GI50 [18]: > 100 µM (inactive)
- GI50 [19]: > 100 µM (inactive)
- GI50 [20]: > 100 µM (inactive)
